# Results from US10478445B2, “Boronic acid derivatives of resveratrol for activating deacetylase enzymes” (Georgetown University, priority 2013, dated 2019).
# Assays:
# [1] = molecular target: T1, purified human SIRT1 enzyme (Homo sapiens, UniProt Q96EB6); settings: reported; cited from earlier work
# T1 construct: purchased Enzo Life Sciences
# T1 sequence (Q96EB6 1-747): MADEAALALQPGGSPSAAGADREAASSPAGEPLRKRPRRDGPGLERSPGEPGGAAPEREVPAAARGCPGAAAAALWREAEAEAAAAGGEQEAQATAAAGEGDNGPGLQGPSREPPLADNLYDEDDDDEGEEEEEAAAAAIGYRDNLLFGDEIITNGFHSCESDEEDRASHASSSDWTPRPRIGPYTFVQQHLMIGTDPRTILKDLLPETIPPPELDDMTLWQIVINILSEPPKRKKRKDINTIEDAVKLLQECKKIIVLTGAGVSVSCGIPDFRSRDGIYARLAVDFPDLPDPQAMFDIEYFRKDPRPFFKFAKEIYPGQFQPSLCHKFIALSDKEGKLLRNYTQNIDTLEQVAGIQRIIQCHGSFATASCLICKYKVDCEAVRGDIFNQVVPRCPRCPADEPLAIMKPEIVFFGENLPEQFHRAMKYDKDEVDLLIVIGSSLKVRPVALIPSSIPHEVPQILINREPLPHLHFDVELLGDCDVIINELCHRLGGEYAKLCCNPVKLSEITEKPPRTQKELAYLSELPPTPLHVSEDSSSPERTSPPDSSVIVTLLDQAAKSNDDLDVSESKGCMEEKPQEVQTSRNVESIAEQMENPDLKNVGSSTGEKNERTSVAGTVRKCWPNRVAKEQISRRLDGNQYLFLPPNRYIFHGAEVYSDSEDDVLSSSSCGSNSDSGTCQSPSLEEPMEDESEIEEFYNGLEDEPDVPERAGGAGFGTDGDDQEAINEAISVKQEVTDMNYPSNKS
# [2] = system: acetyl-p53; settings: reported; cited from earlier work
# [3] = molecular target: T1, purified human SIRT1 enzyme; assay: In vitro SIRT assay (Fluor-de-Lys-SIRT1 deacetylase assay); format: biochemical; settings: 50 μM of suramin added to reaction
# Procedure: The Fluor-de-Lys-SIRT1 and SIRT2 deacetylase assay were performed as manufacturer's instruction (Enzo Life Sciences, Farmingdale, N.Y.). For competition assay, 50 μM of suramin was added to reaction.
# [4] = system: mtp53; assay: Western blot analysis of acetyl-mtp53 (K382) and mtp53 level; format: cell-based; settings: HS578T; 10 μM suramin 1 hr, then 1 μM YK-3-237 23 hr
# Procedure: Preparation of cell lysates and western blot analyses were performed. Antibodies were obtained from the following sources: Ac-p53 (K382; #2525), Ac-α-tubulin (K40; #3971), phospho-ACC (S78; #3661), and ACC (#3676) from Cell Signaling (Danvers, Mass.); PARP (#556494) from BD Pharmingen (San Jose, Calif.); p53 (V1003) from Biomeda (Foster City, Calif.); ERα (sc-543) and SIRT1 (sc-15404) from Santa Cruz (Santa Cruz, Calif.); α-tubulin, β-Actin (A1978), and horseradish peroxidase-conjugated secondary antibodies from Sigma (St. Louis, Mo.). Chemiluminescence reagent was obtained from Santa Cruz or Thermo Scientific (Rockford, Ill.).
Compound,in vitro SIRT1 activity toward nascent p53 peptide [1],acetyl-p53 in cells [2],effect on YK-3-237-mediated SIRT1 activation (competition assay) [3],effect of pre-treatment on YK-3-237-mediated deacetylation and reduction of mtp53 [4]
O=C(Nc1ccccc1-c1cn2c(CN3CCNCC3)csc2n1)c1cnc2ccccc2n1 [SRT1720],could not activate in vitro SIRT1 activity toward nascent p53 peptide,reduce acetyl-p53 in cells,,
Cc1ccc(C(=O)Nc2ccc(S(=O)(=O)O)c3cc(S(=O)(=O)O)cc(S(=O)(=O)O)c23)cc1NC(=O)c1cccc(NC(=O)Nc2cccc(C(=O)Nc3cc(C(=O)Nc4ccc(S(=O)(=O)O)c5cc(S(=O)(=O)O)cc(S(=O)(=O)O)c45)ccc3C)c2)c1 [suramin],,,antagonized YK-3-237-mediated SIRT1 activation,reversed both deacetylation of mtp53 (K382) and reduction of mtp53 protein
